From ChEMBL document CHEMBL1201862, “PubChem BioAssay data set” (2004)
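Tested at 5 concentrations; 48 h exposure; 96-well plates; endpoints linearly interpolated, else capped at highest concentration. Here, GI50 denotes the concentration required for 50% inhibition of growth.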 The source made the active and inactive calls. No stated cut-off is given here; in the data, active = GI50 up to about 1.1 µM and inactive = higher.

Key:
Assay in all cases: growth of human tumour cells (NCI), 48 h
786-0 = test system: 786-0
CAKI-1 = test system: CAKI-1
DU-145 = test system: DU-145
HCT-116 = test system: HCT-116
HOP-62 = test system: HOP-62
HOP-92 = test system: HOP-92
K562 = test system: K562
MCF7 = test system: MCF7
MDA-N = test system: MDA-N
SK-MEL-2 = test system: SK-MEL-2
SK-MEL-5 = test system: SK-MEL-5
SK-OV-3 = test system: SK-OV-3
SN12C = test system: SN12C
SNB-19 = test system: SNB-19
SR = test system: SR
TK-10 = test system: TK-10
U-251 = test system: U-251
UACC-257 = test system: UACC-257
UACC-62 = test system: UACC-62
Hs-578T = test system: Hs-578T

Row | Compound | GI50 (786-0) | GI50 (CAKI-1) | GI50 (DU-145) | GI50 (HCT-116) | GI50 (HOP-62) | GI50 (HOP-92) | GI50 (K562) | GI50 (MCF7) | GI50 (MDA-N) | GI50 (SK-MEL-2) | GI50 (SK-MEL-5) | GI50 (SK-OV-3) | GI50 (SN12C) | GI50 (SNB-19) | GI50 (SR) | GI50 (TK-10) | GI50 (U-251) | GI50 (UACC-257) | GI50 (UACC-62) | GI50 (Hs-578T)
1 | N#CC(O)CCOCc1ccccc1 (centres undefined) | 78.7 µM (inactive) | 17.7 µM (inactive) | > 100 µM (inactive) | 66.5 µM (inactive) | > 100 µM (inactive) | 65.2 µM (inactive) | 80.7 µM (inactive) | 41.6 µM (inactive) | 86.7 µM (inactive) | > 100 µM (inactive) | > 100 µM (inactive) | > 100 µM (inactive) | > 100 µM (inactive) | > 100 µM (inactive) | > 100 µM (inactive) | > 100 µM (inactive) | > 100 µM (inactive) | > 100 µM (inactive) | > 100 µM (inactive) | 
2 | O=C1/C(=N/N=C(c2ccccc2)c2ccccc2)c2ccccc2-c2ccccc21 | > 100 µM (inactive) | 37.6 µM (inactive) | > 100 µM (inactive) | 52.1 µM (inactive) | > 100 µM (inactive) | 25.2 µM (inactive) | > 100 µM (inactive) | > 100 µM (inactive) |  | > 100 µM (inactive) | 99.5 µM (inactive) | > 100 µM (inactive) | 71.1 µM (inactive) | > 100 µM (inactive) | 51.2 µM (inactive) | 75.5 µM (inactive) | 85.7 µM (inactive) | > 100 µM (inactive) | 55.2 µM (inactive) | 29.6 µM (inactive)
3 | C[C@@H](CO)C1=C(O)C(=O)c2c(ccc3c2CCCC3(C)C)C1=O | 55.3 µM (inactive) | 44.9 µM (inactive) | 47 µM (inactive) | 45.5 µM (inactive) | 29.2 µM (inactive) | 21.2 µM (inactive) | 30.3 µM (inactive) |  | 45.1 µM (inactive) | 23.2 µM (inactive) | 30.5 µM (inactive) | 61.9 µM (inactive) | 54.8 µM (inactive) | 25.7 µM (inactive) |  | 45.4 µM (inactive) | 14.1 µM (inactive) | 32.1 µM (inactive) | 23.2 µM (inactive) | 51.2 µM (inactive)
4 | CCc1nnc(CC)n1NCCCC(=O)O | > 100 µM (inactive) |  | > 100 µM (inactive) | > 100 µM (inactive) | > 100 µM (inactive) | > 100 µM (inactive) | > 100 µM (inactive) | > 100 µM (inactive) | > 100 µM (inactive) | > 100 µM (inactive) | > 100 µM (inactive) | > 100 µM (inactive) | > 100 µM (inactive) | > 100 µM (inactive) | > 100 µM (inactive) | > 100 µM (inactive) | > 100 µM (inactive) | > 100 µM (inactive) | > 100 µM (inactive) | 
5 | COc1cc2cnc3c4cc(OCc5ccccc5)ccc4ccc3c2cc1OC | 12.1 µM (inactive) | 26.7 µM (inactive) |  | 45.8 µM (inactive) | 18.9 µM (inactive) | 16.6 µM (inactive) | 10.4 µM (inactive) |  |  | 18.8 µM (inactive) | 17.4 µM (inactive) | 12.7 µM (inactive) | 73.3 µM (inactive) | 34.8 µM (inactive) | 4.5 µM (inactive) | 16.1 µM (inactive) | 24.3 µM (inactive) | 26.7 µM (inactive) | 39.5 µM (inactive) | 
6 | C/N=C(\Nc1cccc(C(F)(F)F)c1)SCc1ccc(N=C=S)cc1 | 16.4 µM (inactive) | 16.5 µM (inactive) | 17.4 µM (inactive) | 15.5 µM (inactive) | 17.5 µM (inactive) | 14.7 µM (inactive) | 20 µM (inactive) |  | 14.8 µM (inactive) | 12.3 µM (inactive) | 16.3 µM (inactive) | 20.2 µM (inactive) | 13.8 µM (inactive) | 14.9 µM (inactive) | 4.34 µM (inactive) | 11.4 µM (inactive) | 15.8 µM (inactive) | 14.3 µM (inactive) | 11.8 µM (inactive) | 14.7 µM (inactive)
7 | CN(NC(=O)/C(=C\c1ccco1)NC(=O)c1ccccc1)c1cn[nH]c(=O)c1Cl | 41.3 µM (inactive) | > 100 µM (inactive) | > 100 µM (inactive) | 51.5 µM (inactive) | 64.3 µM (inactive) | > 100 µM (inactive) | 60.1 µM (inactive) | > 100 µM (inactive) |  | 80.5 µM (inactive) | 29.7 µM (inactive) | > 100 µM (inactive) | 53.2 µM (inactive) | 97.9 µM (inactive) | 29.9 µM (inactive) | > 100 µM (inactive) | 79.4 µM (inactive) | 48.8 µM (inactive) | > 100 µM (inactive) | 52.1 µM (inactive)
8 | CC/C=C\C/C=C\C/C=C\CCCCCCCC(=O)OCC(O)CO (centres undefined) | > 63.1 µM (inactive) | 38 µM (inactive) |  | > 55.6 µM (inactive) | > 100 µM (inactive) | > 68.1 µM (inactive) | 2.46 µM (inactive) |  |  | 97.9 µM (inactive) | > 59.2 µM (inactive) | > 100 µM (inactive) | > 95.1 µM (inactive) | > 100 µM (inactive) | 1 µM (active) | > 100 µM (inactive) | > 57.8 µM (inactive) | > 86.1 µM (inactive) | > 100 µM (inactive) | 
